For one assay, the target named is MAGL (Mus musculus (Mouse), UniProt O35678). Briefly: In vitro competitive activity-based protein profiling, MAGL (mouse). In kind it is biochemical. As to conditions: for inhibition at 1 µM: read-out: MAGL % inh. 1 μM (mouse). Put shortly:
(§1)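 Residual MAGL and FAAH activity came from in-gel fluorescence after competition between inhibitor (30 min preincubation, 37° C) and the activity-based probe FP-Rh or HT-01 (30 min, 37° C) in mouse or human tissue or cell proteomes.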

In the next assay the target is FAAH (Mus musculus (Mouse), UniProt O08914). Briefly: In vitro competitive activity-based protein profiling, FAAH (mouse). As to conditions: for inhibition at 1 µM: read-out: FAAH % inh. 1 μM (mouse). In kind it is biochemical. In outline:
as §1

Structures are written as SMILES.

FAAH, sequence (O08914 whole entry): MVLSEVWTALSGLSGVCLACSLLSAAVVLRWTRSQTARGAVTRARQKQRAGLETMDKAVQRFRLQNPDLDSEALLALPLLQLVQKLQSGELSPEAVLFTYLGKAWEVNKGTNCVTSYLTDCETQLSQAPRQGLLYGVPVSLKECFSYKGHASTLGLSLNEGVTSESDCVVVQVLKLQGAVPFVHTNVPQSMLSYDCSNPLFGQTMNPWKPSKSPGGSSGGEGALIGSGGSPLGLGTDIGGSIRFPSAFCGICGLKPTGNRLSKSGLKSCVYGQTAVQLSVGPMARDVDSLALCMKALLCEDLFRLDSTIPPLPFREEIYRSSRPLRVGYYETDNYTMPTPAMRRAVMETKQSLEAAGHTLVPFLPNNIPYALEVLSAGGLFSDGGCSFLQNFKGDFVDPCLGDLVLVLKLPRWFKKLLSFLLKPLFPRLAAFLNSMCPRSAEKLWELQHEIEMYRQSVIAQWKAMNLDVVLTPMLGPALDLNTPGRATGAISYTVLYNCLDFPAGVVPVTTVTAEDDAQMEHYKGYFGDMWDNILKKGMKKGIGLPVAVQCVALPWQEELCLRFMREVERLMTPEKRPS
MAGL, sequence (O35678 whole entry): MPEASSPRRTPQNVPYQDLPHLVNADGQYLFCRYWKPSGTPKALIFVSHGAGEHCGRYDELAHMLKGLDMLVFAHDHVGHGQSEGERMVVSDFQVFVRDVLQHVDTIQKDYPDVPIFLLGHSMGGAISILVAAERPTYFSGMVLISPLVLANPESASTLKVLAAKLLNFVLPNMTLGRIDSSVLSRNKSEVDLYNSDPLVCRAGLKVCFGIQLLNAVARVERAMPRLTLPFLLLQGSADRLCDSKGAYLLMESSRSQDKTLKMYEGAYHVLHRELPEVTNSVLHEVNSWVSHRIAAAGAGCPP

For `CC(=O)N(C)c1cnn(C(=O)N2CCC3(CC2)CN(Cc2ccccc2Cl)C3)c1` [Example 40, N-(1-(2-(2-chlorobenzyl)-2,7-diazaspiro[3.5]nonane-7-carbonyl)-1H-pyrazol-4-yl)-N-methylacetamide], the values for the IC50 at MAGL and at FAAH were at most 100 nM and 100 to 1000 nM, respectively. Moreover, the inhibition at 1 µM at MAGL and on FAAH was at least 75% in each case.

As to `CC(=O)N(C)c1cnn(C(=O)N2CCC3(CC2)CN(Cc2ccccc2F)C3)c1` [Example 41, N-(1-(2-(2-fluorobenzyl)-2,7-diazaspiro[3.5]nonane-7-carbonyl)-1H-pyrazol-4-yl)-N-methylacetamide], the inhibition at 1 µM at MAGL was at least 75%; at FAAH, 50 to 75%.

As to `CC(=O)N(C)c1cnn(C(=O)N2CCC3(CC2)CN(Cc2ccccc2C)C3)c1` [Example 42, N-methyl-N-(1-(2-(2-methylbenzyl)-2,7-diazaspiro[3.5]nonane-7-carbonyl)-1H-pyrazol-4-yl)acetamide], the inhibition at 1 µM on MAGL and at FAAH was at least 75% throughout.

`COc1ccccc1CN1CC2(CCN(C(=O)n3cc(N(C)C(C)=O)cn3)CC2)C1` [Example 43, N-(1-(2-(2-methoxybenzyl)-2,7-diazaspiro[3.5]nonane-7-carbonyl)-1H-pyrazol-4-yl)-N-methylacetamide]: the inhibition at 1 µM was at least 75% at MAGL and 0 to 25% at FAAH.

Take `CC(=O)N(C)c1cnn(C(=O)N2CCC3(CC2)CN(Cc2ccccc2C(F)(F)F)C3)c1` [Example 44, N-methyl-N-(1-(2-(2-(trifluoromethyl)benzyl)-2,7-diazaspiro[3.5]nonane-7-carbonyl)-1H-pyrazol-4-yl)acetamide]: the IC50 at MAGL and on FAAH was at most 100 nM throughout. Moreover, the inhibition at 1 µM on MAGL and on FAAH was at least 75% throughout.

Consider `CC(=O)N(C)c1cnn(C(=O)N2CCC3(CC2)CN(Cc2ccccc2N2CCCC2)C3)c1` [Example 45, N-methyl-N-(1-(2-(2-(pyrrolidin-1-yl)benzyl)-2,7-diazaspiro[3.5]nonane-7-carbonyl)-1H-pyrazol-4-yl)acetamide], for which the inhibition at 1 µM on MAGL was at least 75%; at FAAH, 0 to 25%.

Turning to `CC(=O)N(C)c1cnn(C(=O)N2CCC3(CC2)CN(Cc2ccccc2N2CCOCC2)C3)c1` [Example 46, N-methyl-N-(1-(2-(2-morpholinobenzyl)-2,7-diazaspiro[3.5]nonane-7-carbonyl)-1H-pyrazol-4-yl)acetamide], the inhibition at 1 µM on MAGL was 50 to 75%; on FAAH, 0 to 25%.

For `CC(=O)N(C)c1cnn(C(=O)N2CCC3(CCN(Cc4ccc(N5CCCC5)cc4)C3)C2)c1` (centres unmarked) [Example 47, N-methyl-N-(1-(7-(4-(pyrrolidin-1-yl)benzyl)-2,7-diazaspiro[4.4]nonane-2-carbonyl)-1H-pyrazol-4-yl)acetamide], the inhibition at 1 µM at MAGL was 25 to 50%; on FAAH it was at least 75%.

Take `CC(=O)N(C)c1cnn(C(=O)N2CCC3(CCN(Cc4c(Cl)cccc4Cl)C3)C2)c1` (centres unmarked) [Example 49, N-(1-(7-(2,6-dichlorobenzyl)-2,7-diazaspiro[4.4]nonane-2-carbonyl)-1H-pyrazol-4-yl)-N-methylacetamide]: on MAGL, the IC50 (commonly the concentration needed to halve the response being measured) fell in the range of 100 to 1000 nM and the inhibition at 1 µM was at least 75%. Moreover, at FAAH, the half-inhibitory concentration (IC50) is 100 to 1000 nM and the inhibition at 1 µM is at least 75%.

`CC(=O)N(C)c1cnn(C(=O)N2CCC3(CCN(Cc4ccc(Cl)cc4Cl)C3)C2)c1` (centres unmarked) [Example 51, N-(1-(7-(2,4-dichlorobenzyl)-2,7-diazaspiro[4.4]nonane-2-carbonyl)-1H-pyrazol-4-yl)-N-methylacetamide]: the IC50 on MAGL and at FAAH was at most 100 nM in each case. For the same compound, the inhibition at 1 µM on MAGL and at FAAH was at least 75% throughout.

Turning to `CC(=O)N(C)c1cnn(C(=O)N2CCC3(CCN(Cc4cc(Cl)cc(Cl)c4)C3)C2)c1` (centres unmarked) [Example 53, N-(1-(7-(3,5-dichlorobenzyl)-2,7-diazaspiro[4.4]nonane-2-carbonyl)-1H-pyrazol-4-yl)-N-methylacetamide], at MAGL, the IC50 is 100 to 1000 nM and the inhibition at 1 µM is at least 75%. On FAAH, the IC50 is at most 100 nM and the inhibition at 1 µM is at least 75%.

Take `CC(=O)N(C)c1cnn(C(=O)N2CCC3(CCN(Cc4ccc(C)cc4Cl)C3)C2)c1` (centres unmarked) [Example 55, N-(1-(7-(2-chloro-4-methylbenzyl)-2,7-diazaspiro[4.4]nonane-2-carbonyl)-1H-pyrazol-4-yl)-N-methylacetamide]: on MAGL, the IC50 is 100 to 1000 nM and the inhibition at 1 µM is at least 75%. Further, on FAAH, the half-maximal inhibitory concentration (IC50) is at most 100 nM and the inhibition at 1 µM was at least 75%.

For `CC(=O)N(C)c1cnn(C(=O)N2CCC3(CCN(Cc4cccc(Cl)c4C)C3)C2)c1` (centres unmarked) [Example 57, N-(1-(7-(3-chloro-2-methylbenzyl)-2,7-diazaspiro[4.4]nonane-2-carbonyl)-1H-pyrazol-4-yl)-N-methylacetamide], at MAGL, the IC50 lay within 100 to 1000 nM and the inhibition at 1 µM is at least 75%. Also, on FAAH, the IC50 is at most 100 nM and the inhibition at 1 µM is at least 75%.

In the case of `CC(=O)N(C)c1cnn(C(=O)N2CCC3(CCN(Cc4cccc(Cl)c4Cl)C3)C2)c1` (centres unmarked) [Example 59, N-(1-(7-(2,3-dichlorobenzyl)-2,7-diazaspiro[4.4]nonane-2-carbonyl)-1H-pyrazol-4-yl)-N-methylacetamide], at MAGL, the IC50 fell in the range of 100 to 1000 nM and the inhibition at 1 µM is at least 75%. In addition, at FAAH, the IC50 was at most 100 nM and the inhibition at 1 µM is at least 75%.

Regarding `CC(=O)N(C)c1cnn(C(=O)N2CCC3(CCN(Cc4ccc(C(F)(F)F)c(N5CCOCC5)c4)C3)C2)c1` (centres unmarked) [Example 61, N-methyl-N-(1-(7-(3-morpholino-4-(trifluoromethyl)benzyl)-2,7-diazaspiro[4.4]nonane-2-carbonyl)-1H-pyrazol-4-yl)acetamide], the IC50 at MAGL and on FAAH was at most 100 nM in each case. The inhibition at 1 µM at MAGL and on FAAH was at least 75% in each case.

On to `CC(=O)N(C)c1cnn(C(=O)N2CCC3(CCN(Cc4cc(Cl)cc(N5CCOCC5)c4)C3)C2)c1` (centres unmarked) [Example 63, N-(1-(7-(3-chloro-5-morpholinobenzyl)-2,7-diazaspiro[4.4]nonane-2-carbonyl)-1H-pyrazol-4-yl)-N-methylacetamide], for which the inhibition at 1 µM at MAGL and at FAAH was at least 75% each time.

Turning to `CC(=O)N(C)c1cnn(C(=O)N2CCC3(CCN(Cc4cccc(C(F)(F)F)c4)C3)C2)c1` (centres unmarked) [Example 64, N-methyl-N-(1-(7-(3-(trifluoromethyl)benzyl)-2,7-diazaspiro[4.4]nonane-2-carbonyl)-1H-pyrazol-4-yl)acetamide], on MAGL, the IC50 lay within 100 to 1000 nM and the inhibition at 1 µM is at least 75%. Further, on FAAH, the IC50 is at most 100 nM and the inhibition at 1 µM was at least 75%.

In the case of `CC(=O)N(C)c1cnn(C(=O)N2CCC3(CCN(Cc4ccc(N5CCCC5)c(Cl)c4)C3)C2)c1` (centres unmarked) [Example 67, N-(1-(7-(3-chloro-4-(pyrrolidin-1-yl)benzyl)-2,7-diazaspiro[4.4]nonane-2-carbonyl)-1H-pyrazol-4-yl)-N-methylacetamide], the IC50 was 100 to 1000 nM at MAGL and at most 100 nM at FAAH. Moreover, the inhibition at 1 µM at MAGL and on FAAH was at least 75% in each case.

Take `CC(=O)N(C)c1cnn(C(=O)N2CCC3(CCN(Cc4cc(N5CCOCC5)cc(C(F)(F)F)c4)C3)C2)c1` (centres unmarked) [Example 68, N-methyl-N-(1-(7-(3-morpholino-5-(trifluoromethyl)benzyl)-2,7-diazaspiro[4.4]nonane-2-carbonyl)-1H-pyrazol-4-yl)acetamide]: the IC50 at MAGL is 100 to 1000 nM; at FAAH it was at most 100 nM. Besides, the inhibition at 1 µM at MAGL and at FAAH was at least 75% each time.

Take `CC(=O)N(C)c1cnn(C(=O)N2CCC3(CCN(Cc4ccc(N5CCCC5)c(C(F)(F)F)c4)C3)C2)c1` (centres unmarked) [Example 69, N-methyl-N-(1-(7-(4-(pyrrolidin-1-yl)-3-(trifluoromethyl)benzyl)-2,7-diazaspiro[4.4]nonane-2-carbonyl)-1H-pyrazol-4-yl)acetamide]: the inhibition at 1 µM on MAGL and on FAAH was at least 75% each time.

Turning to `CC(=O)N(C)c1cnn(C(=O)N2CCC3(CCN(Cc4cc(Cl)ccc4C(F)(F)F)C3)C2)c1` (centres unmarked) [Example 70, N-(1-(7-(5-chloro-2-(trifluoromethyl)benzyl)-2,7-diazaspiro[4.4]nonane-2-carbonyl)-1H-pyrazol-4-yl)-N-methylacetamide], the IC50 on MAGL and at FAAH was at most 100 nM each time. Moreover, the inhibition at 1 µM at MAGL and at FAAH was at least 75% in each case.

Consider `CC(=O)N(C)c1cnn(C(=O)N2CCC3(CCN(Cc4cc(C(F)(F)F)ccc4Cl)C3)C2)c1` (centres unmarked) [Example 71, N-(1-(7-(2-chloro-5-(trifluoromethyl)benzyl)-2,7-diazaspiro[4.4]nonane-2-carbonyl)-1H-pyrazol-4-yl)-N-methylacetamide], for which the inhibition at 1 µM at MAGL and on FAAH was at least 75% in each case.

Regarding `CC(=O)N(C)c1cnn(C(=O)N2CCC3(CCN(Cc4cc(C(F)(F)F)ccc4C(F)(F)F)C3)C2)c1` (centres unmarked) [Example 72, N-(1-(7-(2,5-bis(trifluoromethyl)benzyl)-2,7-diazaspiro[4.4]nonane-2-carbonyl)-1H-pyrazol-4-yl)-N-methylacetamide], the inhibition at 1 µM on MAGL and on FAAH was at least 75% in each case.

Regarding `CC(=O)N(C)c1cnn(C(=O)N2CCC3(CCN(Cc4cc(N5CCCC5)ccc4C(F)(F)F)C3)C2)c1` (centres unmarked) [Example 73, N-methyl-N-(1-(7-(5-(pyrrolidin-1-yl)-2-(trifluoromethyl)benzyl)-2,7-diazaspiro[4.4]nonane-2-carbonyl)-1H-pyrazol-4-yl)acetamide], the inhibition at 1 µM on MAGL and at FAAH was at least 75% in each case.
